The results in this text go back to article PMC9898036, “VIP152 is a selective CDK9 inhibitor with pre-clinical in vitro and in vivo efficacy in chronic lymphocytic leukemia” (Leukemia, 2022).

Experiment [1] has as its target Estrogen Erα (Homo sapiens, UniProt P03372). The experiment in a line: Eurofins Diversity Panel. The format is binding. Particulars: hum, Conc. 10 μM.
For experiment [2], the target named is MAP3K1 (Homo sapiens, UniProt Q13233). The experiment in a line: KINOMEscan: MAP3K1. The format is binding. To be noted: 1000 nM, read-out: Percent Control.
The target in experiment [3] is FLT4 (Homo sapiens, UniProt P35916). The experiment in a line: KINOMEscan: FLT4. The format is binding. To be noted: 1000 nM, read-out: Percent Control.
Experiment [4] addresses GRK3 (Homo sapiens, UniProt P35626). The experiment can be described thus: KINOMEscan: GRK3. To be noted: 1000 nM, read-out: Percent Control. The format is binding.
In experiment [5] the target is LZK (Homo sapiens, UniProt O43283). The experiment can be described thus: KINOMEscan: LZK. It is filed as binding. Particulars: 1000 nM, read-out: Percent Control.
In experiment [6] the target is PFCDPK1(P.falciparum) (Plasmodium falciparum, UniProt P62344). The experiment in a line: DiscoverX KINOMEscan kinase profiling. The format is binding. Particulars: kinase PFCDPK1(P.falciparum) (Entrez CDPK1); compound concentration 1000 nM; read-out: Percent Control.
In experiment [7] the target is CSK (Homo sapiens, UniProt P41240). The experiment can be described thus: KINOMEscan: CSK. Particulars: 1000 nM, read-out: Percent Control. It is filed as binding.
Experiment [8] addresses CDKL5 (Homo sapiens, UniProt O76039). The experiment in a line: KINOMEscan: CDKL5. The format is binding. To be noted: 1000 nM, read-out: Percent Control.
In experiment [9] the target is Potassium Channel [KATP] (Cricetus cricetus, UniProt Q09427). The experiment in a line: Eurofins Diversity Panel. To be noted: ham, Conc. 10 μM. It is filed as binding, hamster. How it is done:
The structure and synthesis of VIP152 were recently described by Lücking et al.. (Fig. 1A); however, the selectivity of the molecule in cellular systems has yet to be explored. […] We also performed this experiment at 1000 nM, where CDK9 was inhibited at 99%. […] We found a strong concordance between our data and those of Lücking when comparing the most inhibited kinases. Potential off-target effects of VIP152 were next tested in vitro at a concentration of 10 µM for off-target activity against a broad range of receptors, transporters, ion channels, and enzymes (n = 138) using the Eurofins Diversity Panel.

For experiment [10], the target named is Serotonin (5-Hydroxytryptamine) 5-HT2B) (Homo sapiens, UniProt P41595). The experiment can be described thus: Eurofins Diversity Panel. It is filed as binding. Particulars: hum, Conc. 10 μM.
For experiment [11], the target named is CDK5 (Homo sapiens, UniProt Q00535). The experiment can be described thus: KINOMEscan: CDK5. To be noted: 1000 nM, read-out: Percent Control. It is filed as binding.
Experiment [12] deals with TESK1 (Homo sapiens, UniProt Q15569). The experiment can be described thus: KINOMEscan: TESK1. It is filed as binding. Particulars: 100 nM, read-out: Percent Control.
In experiment [13] the test system is B-cells isolated from patients with treatment-naïve CLL. The experiment in a line: Limiting-cell RNA sequencing (lcRNAseq). It is filed as cell-based, human. How it is done:
CLL cells isolated from patients were sorted for CD5^+/CD19^+ into lysis buffer. Libraries were prepared and sequenced as previously described.
P-TEFb’s role in regulating transcription through POLII CTD phosphorylation is a canonical function of this complex. To interrogate the transcriptional changes associated with VIP152 treatment, we treated B-cells, isolated from four patients with treatment-naïve CLL, with 1 µM VIP152 or DMSO for two hours followed by fluorescence-assisted cell sorting for 500 live (Sytox^−), CD45^+/CD5^+/CD19^+ cells (Fig. 3A). Our group has previously defined an analysis pipeline, named CLEAR, which identifies evenly distributed reads for differentially expressed gene (DEG) analysis. […] When we looked at the expression of these differentially abundant genes via an unsupervised clustered heatmap, we noted that there was high concordance between the patient samples with clustering dependent on treatment group (Fig. 3C). The treatment did induce decreased transcript abundance of genes previously reported to be controlled by CDK9 activity, namely JUNB, BTG1, and MCL1 [45, 46]. Downregulation of the anti-apoptotic MCL1 (LFC: −1.231056 & p-value = 0.02) likely contributes to the susceptibility of primary CLL cells to apoptosis (Fig. 2F, G). […] It has been established that AU-rich element (ARE) mRNA molecules are under tight temporal regulation and control a variety of cellular processes. Moreover, the relationship between P-TEFb mediated transcription and ARE-bearing mRNA has previously been described. […] We appreciate from our limiting-cell RNA sequencing experiments that the loss of tristetrapolin (ZFP36) transcripts (LFC: −4.02; adjusted p-value: 7.97*10^−40) and the upregulation of ribosomal transcripts, likely correspond to a possible compensatory mechanism by which these cells attempt to improve translational output and maximize transcript maintenance in response to VIP152-induced transcriptional shutdown. […] We looked at transcripts which had been shown by photoactivatable ribonucleoside cross-linking and immunoprecipitation (PAR-CLIP) to interact with ZFP36 [50]. […] Additionally, we chose to look at BCL2 transcript stability as ZFP36L1 has been shown in B cell lymphoma to negatively regulate BCL2 transcript stability. We performed an mRNA stability study on patient samples treated with VIP152 with Actinomycin-D and observed an increase in the half-lives of each of these transcripts including BCL2 (Fig. 3H–M).

The target of experiment [14] is CDK9 in complex with Cyclin T1 (Homo sapiens, UniProt P50750). The experiment in a line: NanoBRET target engagement assay (HEK293). It is filed as cell-based. A general note: Bioluminescence resonance energy transfer reports proximity on the nanometre scale.
Experiment [15] deals with BLK (Homo sapiens, UniProt P51451). The experiment can be described thus: KINOMEscan: BLK. The format is binding. Particulars: 1000 nM, read-out: Percent Control.

Molecules are shown by their SMILES.

Sequence of GRK3 (P35626 whole entry): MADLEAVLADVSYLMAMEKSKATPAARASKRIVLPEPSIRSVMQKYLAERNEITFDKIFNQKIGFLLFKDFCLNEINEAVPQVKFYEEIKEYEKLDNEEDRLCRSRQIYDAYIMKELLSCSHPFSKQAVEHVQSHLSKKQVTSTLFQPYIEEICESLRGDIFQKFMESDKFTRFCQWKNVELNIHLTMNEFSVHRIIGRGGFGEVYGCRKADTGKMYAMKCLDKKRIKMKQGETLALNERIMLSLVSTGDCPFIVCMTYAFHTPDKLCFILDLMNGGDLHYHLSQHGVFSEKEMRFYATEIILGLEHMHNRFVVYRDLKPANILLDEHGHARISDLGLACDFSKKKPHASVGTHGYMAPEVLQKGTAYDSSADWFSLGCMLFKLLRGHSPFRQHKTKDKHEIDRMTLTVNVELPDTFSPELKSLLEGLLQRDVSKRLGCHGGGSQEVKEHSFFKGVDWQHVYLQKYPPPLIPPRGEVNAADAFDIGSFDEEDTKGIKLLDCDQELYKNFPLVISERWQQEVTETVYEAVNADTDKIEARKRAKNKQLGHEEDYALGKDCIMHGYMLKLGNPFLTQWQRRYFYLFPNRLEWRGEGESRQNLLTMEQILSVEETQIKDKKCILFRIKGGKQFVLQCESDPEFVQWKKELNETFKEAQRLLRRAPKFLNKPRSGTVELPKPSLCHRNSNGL
Sequence of CDKL5 (O76039 whole entry): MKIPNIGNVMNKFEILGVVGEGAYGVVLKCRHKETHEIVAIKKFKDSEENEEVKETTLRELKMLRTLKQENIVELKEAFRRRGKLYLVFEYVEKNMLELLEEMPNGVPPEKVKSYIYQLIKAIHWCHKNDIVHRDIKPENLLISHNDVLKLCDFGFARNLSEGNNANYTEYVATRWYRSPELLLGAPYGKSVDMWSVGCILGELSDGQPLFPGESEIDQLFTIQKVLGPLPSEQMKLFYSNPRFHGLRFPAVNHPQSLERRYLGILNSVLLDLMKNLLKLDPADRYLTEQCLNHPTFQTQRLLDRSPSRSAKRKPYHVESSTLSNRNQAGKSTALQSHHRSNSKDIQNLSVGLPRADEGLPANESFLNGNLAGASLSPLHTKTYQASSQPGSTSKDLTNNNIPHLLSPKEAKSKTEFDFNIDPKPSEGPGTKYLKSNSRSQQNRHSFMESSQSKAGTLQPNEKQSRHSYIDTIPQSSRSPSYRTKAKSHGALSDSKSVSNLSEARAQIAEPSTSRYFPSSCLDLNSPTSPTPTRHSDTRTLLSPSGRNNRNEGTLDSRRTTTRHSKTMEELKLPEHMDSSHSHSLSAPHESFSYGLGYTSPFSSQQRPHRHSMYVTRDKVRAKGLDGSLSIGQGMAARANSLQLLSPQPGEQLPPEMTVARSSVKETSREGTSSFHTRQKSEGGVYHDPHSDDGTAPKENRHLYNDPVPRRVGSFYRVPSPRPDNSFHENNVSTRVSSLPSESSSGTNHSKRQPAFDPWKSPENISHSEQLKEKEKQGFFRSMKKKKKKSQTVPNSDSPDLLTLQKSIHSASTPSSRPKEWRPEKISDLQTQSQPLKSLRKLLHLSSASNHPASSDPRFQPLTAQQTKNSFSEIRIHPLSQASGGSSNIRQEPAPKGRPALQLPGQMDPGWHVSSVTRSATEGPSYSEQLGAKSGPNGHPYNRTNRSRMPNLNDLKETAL
Sequence of CDK5 (Q00535 whole entry): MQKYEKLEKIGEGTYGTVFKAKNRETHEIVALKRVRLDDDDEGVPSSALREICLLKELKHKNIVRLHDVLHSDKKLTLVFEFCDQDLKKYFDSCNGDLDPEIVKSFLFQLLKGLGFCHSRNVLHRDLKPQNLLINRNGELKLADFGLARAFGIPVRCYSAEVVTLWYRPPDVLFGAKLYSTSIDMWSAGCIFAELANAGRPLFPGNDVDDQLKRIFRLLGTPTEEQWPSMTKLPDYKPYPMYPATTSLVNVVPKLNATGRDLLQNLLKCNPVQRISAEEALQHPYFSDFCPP
Sequence of CDK9 in complex with Cyclin T1 (P50750 whole entry): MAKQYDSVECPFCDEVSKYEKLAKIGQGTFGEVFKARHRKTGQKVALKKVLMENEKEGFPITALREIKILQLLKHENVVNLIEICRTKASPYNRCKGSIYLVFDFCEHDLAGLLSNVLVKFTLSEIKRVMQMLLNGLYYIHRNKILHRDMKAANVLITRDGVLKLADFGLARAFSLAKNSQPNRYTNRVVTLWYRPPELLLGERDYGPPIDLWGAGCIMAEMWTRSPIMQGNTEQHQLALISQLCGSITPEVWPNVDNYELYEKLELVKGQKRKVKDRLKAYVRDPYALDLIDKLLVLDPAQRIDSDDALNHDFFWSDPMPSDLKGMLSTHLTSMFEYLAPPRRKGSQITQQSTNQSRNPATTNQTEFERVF
Sequence of CDK9 in complex with Cyclin T1 (O60563 whole entry partner): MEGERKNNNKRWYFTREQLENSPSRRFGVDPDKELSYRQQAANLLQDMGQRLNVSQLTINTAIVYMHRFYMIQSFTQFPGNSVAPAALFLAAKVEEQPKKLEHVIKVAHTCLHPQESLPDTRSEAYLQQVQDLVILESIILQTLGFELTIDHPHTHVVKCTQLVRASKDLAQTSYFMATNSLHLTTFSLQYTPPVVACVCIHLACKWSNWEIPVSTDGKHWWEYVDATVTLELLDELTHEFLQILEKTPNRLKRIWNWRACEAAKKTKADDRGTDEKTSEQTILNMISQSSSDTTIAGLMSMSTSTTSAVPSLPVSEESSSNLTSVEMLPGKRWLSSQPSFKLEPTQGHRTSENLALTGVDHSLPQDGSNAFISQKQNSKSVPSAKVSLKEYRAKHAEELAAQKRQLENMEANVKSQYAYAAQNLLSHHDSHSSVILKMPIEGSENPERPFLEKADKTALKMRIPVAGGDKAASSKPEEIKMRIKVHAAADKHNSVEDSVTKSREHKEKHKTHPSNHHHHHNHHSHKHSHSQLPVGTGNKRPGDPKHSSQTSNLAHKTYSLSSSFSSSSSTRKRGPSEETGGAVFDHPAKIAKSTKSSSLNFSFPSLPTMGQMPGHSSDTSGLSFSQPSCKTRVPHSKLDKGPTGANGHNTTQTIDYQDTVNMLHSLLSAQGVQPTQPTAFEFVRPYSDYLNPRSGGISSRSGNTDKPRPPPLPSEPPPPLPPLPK
Sequence of TESK1 (Q15569 whole entry): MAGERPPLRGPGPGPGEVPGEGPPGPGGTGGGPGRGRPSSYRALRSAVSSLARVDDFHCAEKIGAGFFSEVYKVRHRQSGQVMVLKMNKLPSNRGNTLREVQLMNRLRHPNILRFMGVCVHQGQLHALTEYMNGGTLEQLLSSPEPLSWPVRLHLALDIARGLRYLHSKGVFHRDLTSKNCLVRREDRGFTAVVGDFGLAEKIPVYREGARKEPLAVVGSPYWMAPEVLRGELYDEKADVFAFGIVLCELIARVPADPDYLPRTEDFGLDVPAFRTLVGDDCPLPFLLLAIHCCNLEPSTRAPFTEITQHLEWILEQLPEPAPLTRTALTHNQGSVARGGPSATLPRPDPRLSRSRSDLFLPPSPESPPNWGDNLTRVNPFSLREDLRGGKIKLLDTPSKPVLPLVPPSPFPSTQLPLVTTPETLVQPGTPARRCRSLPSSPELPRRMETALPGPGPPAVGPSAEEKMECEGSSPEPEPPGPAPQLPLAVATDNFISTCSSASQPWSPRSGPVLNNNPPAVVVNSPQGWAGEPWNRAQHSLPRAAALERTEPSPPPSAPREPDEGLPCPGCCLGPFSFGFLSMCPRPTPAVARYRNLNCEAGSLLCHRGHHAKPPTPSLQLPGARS
Sequence of Serotonin (5-Hydroxytryptamine) 5-HT2B) (P41595 whole entry): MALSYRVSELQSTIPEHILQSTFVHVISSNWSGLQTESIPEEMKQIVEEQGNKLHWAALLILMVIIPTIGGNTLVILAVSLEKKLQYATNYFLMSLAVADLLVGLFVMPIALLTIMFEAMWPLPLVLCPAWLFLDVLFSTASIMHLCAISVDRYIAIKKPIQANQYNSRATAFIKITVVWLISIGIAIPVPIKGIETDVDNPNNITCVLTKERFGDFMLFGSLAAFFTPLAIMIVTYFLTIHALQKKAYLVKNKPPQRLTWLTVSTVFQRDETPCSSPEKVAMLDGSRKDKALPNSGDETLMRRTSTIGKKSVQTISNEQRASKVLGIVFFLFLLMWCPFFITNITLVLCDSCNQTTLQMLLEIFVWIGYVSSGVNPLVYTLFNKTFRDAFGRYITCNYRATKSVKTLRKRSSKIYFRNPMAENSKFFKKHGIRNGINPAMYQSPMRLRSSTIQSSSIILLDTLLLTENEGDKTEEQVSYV
Sequence of BLK (P51451 whole entry): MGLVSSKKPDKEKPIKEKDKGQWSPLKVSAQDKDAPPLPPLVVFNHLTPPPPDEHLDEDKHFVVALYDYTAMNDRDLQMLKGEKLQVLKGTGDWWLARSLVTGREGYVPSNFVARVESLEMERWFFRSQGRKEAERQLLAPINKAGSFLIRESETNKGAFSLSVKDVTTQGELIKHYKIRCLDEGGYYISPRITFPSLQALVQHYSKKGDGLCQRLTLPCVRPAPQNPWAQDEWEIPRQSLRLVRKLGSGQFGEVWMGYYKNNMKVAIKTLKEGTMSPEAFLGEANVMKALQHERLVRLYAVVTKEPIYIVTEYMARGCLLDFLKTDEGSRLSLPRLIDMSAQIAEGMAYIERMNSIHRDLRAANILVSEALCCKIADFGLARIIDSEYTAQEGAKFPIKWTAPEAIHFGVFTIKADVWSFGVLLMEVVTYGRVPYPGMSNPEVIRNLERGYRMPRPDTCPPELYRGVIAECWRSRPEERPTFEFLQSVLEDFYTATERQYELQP

The inhibition is the relative decrease from the control value, in per cent. For `COc1cc(F)ccc1-c1cc(Nc2cc(CS(C)(=N)=O)ccn2)ncc1F` (stereo not drawn) [VIP152], the inhibition at 10 µM is 6% in [1], -19% in experiment [9] and 56% in experiment [10]. The remaining binding at 1 µM in experiment [2] was 78%; in experiment [3], 74%; in experiment [4], 100%; in experiment [5], 100%; in experiment [6], 86%; in experiment [7] it was 92%. For the same compound, the values for the remaining binding at 1 µM in experiment [8], in experiment [11] and in experiment [15] were 90%, 83% and 76%, respectively. In addition, the remaining binding at 0.1 µM in experiment [12] was determined as 100%. The “MCL1 transcript LFC” value in experiment [13] (1 µM, two hours vs DMSO) is −1.231. Moreover, the “ZFP36 transcript LFC” value in [13] (1 µM, two hours vs DMSO) is listed as −4.02. The “log2FoldChange A1BG” value in [13] (VIP152 2hr vs DMSO 2hr) is reported as 0.4323. The “log2FoldChange A1BG-AS1” value in experiment [13] (VIP152 2hr vs DMSO 2hr) was found to be 0.777. Also, the “log2FoldChange AAAS” value in [13] (VIP152 2hr vs DMSO 2hr) was 0.1502. Further, the “log2FoldChange AAGAB” value in [13] (VIP152 2hr vs DMSO 2hr) is recorded as 0.6327. Further, the “log2FoldChange AAMDC” value in experiment [13] (VIP152 2hr vs DMSO 2hr) worked out at 0.4489. In addition, the “potency versus the other inhibitors” value in experiment [14] is given as “higher potency”.
